Test results from patent US11827624B2, “Covalent immune recruiter compounds for immune cell recognition and associated uses” (McMaster University, priority 2020, dated 2023).

Tests used:
PSMA+HEK cells = assay: Two-color flow cytometry ADCP (CD64) assay with mAb on PSMA+HEK cells; format: cell-based, human
Excerpt: ADCP flow cytometry experiments were run on a BD LSRII Flow Cytometer. The human IgG isotype control used was purchased from Jackson ImmunoResearch (009-000-003). The human IgG1 monoclonal anti-DNP antibody (mAb) was purchased from acrobiosystems (DNP-M2). PSMA expression was confirmed with an anti-PSMA antibody Alexa 647 conjugate (Novus Biologicals, Catalog #FAB4234R). For PSMA competition controls, PMPA was purchased from Sigma (SML1612). Hek-293T (PSMA+/−) cell lines were generously given by Dr. Cyril Barinka (Institute of Biotechnology CAS, Czech Republic). U937 cells were generously given by Dr. John Valliant (McMaster University, Canada). LNCaP cells were generously given by Dr. Karen Mossman (McMaster University, Canada). IFN-γ was purchased from Fischer Scientific (PHC4031). Ultra low IgG FBS was purchased from Fischer Scientific (A3381901). RPMI-1640 was purchased as a powder from Fischer Scientific (31800089) and resuspended. DMEM was purchased as a powder from Fischer Scientific (12800082) and resuspended. […]
For preparation of effector monocytes, 24 hours prior to inducing phagocytosis U937 monocytes were seeded at 500,000 cells/mL and activated with IFN-γ ([…]). After incubation, these cells were then counted and washed twice with serum free assay media (neat RPMI). […] These cells were then counted and washed twice with serum free assay media (neat RPMI). […]

[1] = system: human serum anti-DNP IgG (sAb); assay: BLI Fc capture probe assay of CIR 3 covalent recruitment of serum anti-DNP IgG; format: binding; settings: 60 nM anti-DNP IgG enriched sample
Procedure: The ability of CIR 3 to recruit the tumour antigen PSMA to anti-DNP antibodies was measured using BLI. Anti-DNP IgG was isolated from human serum IgG (Cedarlane Labs) using affinity chromatography. The enriched anti-DNP antibody sample had 63.19 nM of anti-DNP antibody in 1.92 μM of total IgG. The enriched antibody sample was reacted with 2.5 μM of CIR 3 in PBS overnight at room temperature. A sample of 32.75 μM IgG that was depleted of anti-DNP antibody was also reacted with 2.5 μM of CIR 3 in PBS overnight at room temperature as a negative control. The BLI experiment was conducted using an Octet Red96 (ForteBio) with the temperature set at 25° C., the RPM set at 1000, and the acquisition rate set at 5 Hz. The isolated anti-DNP and CIR 3 reaction samples were suspended in 1×Kinetics Buffer (ForteBio) by doping in a 1:10 dilution of 10×Kinetics Buffer stock. A volume of 200 μL of each solution was loaded into a black flat-bottom 96-well plate (Grenier). Fc capture (ProG) biosensors from ForteBio were placed in 1×Kinetics Buffer for 20 minutes prior to the experiment for wetting. First, the probes were placed in 1×Kinetics Buffer for 4 minutes to establish a baseline. […] Association of PSMA to the probe was measured by submerging the probe in 500 nM PSMA for 10 minutes. Dissociation of PSMA from the probe was measured by submerging the probe in 1×Kinetics Buffer for 10 minutes. […]

## O=C(O)CC[C@H](NC(=O)N[C@@H](CCCCNC(=O)NCCOCCOCCOCCOCCOCCOCCOCCOC(=O)n1cnc(CCNC(=O)CNc2ccc([N+](=O)[O-])cc2[N+](=O)[O-])c1)C(=O)O)C(=O)O [CIR 3]
PSMA+HEK cells
  CD64 based target immune recognition (phagocytosis): substantial functional enhancement relative to ARM 11 across all antibody concentrations tested
[1]
  covalent labeling of enriched serum anti-DNP IgG: substantial covalent antibody labeling and resultant PSMA binding to Fc capture probes
